{"source": "patent US8753820B2", "about": "“Protein biomarkers for soft tissue disease diagnosis and as therapeutic targets for oral care intervention” (Colgate-Palmolive Company, priority 2009, dated 2014)", "key": {"[1]": {"conditions": "PEG 600 present in a weight ratio of 25 triclosan:1 PEG 600, versus absence of polyethylene glycol; cited from earlier work"}, "[2]": {"system": "MMP-13 expression in UMR 106-01 cells", "assay": "MMP-13 expression by real time quantitative RT-PCR in PTH stimulated UMR 106-01 cells", "type": "cell-based, Rat", "conditions": "4 hours; for MMP-13 expression in PTH stimulated UMR cells: PTH 10^-8 M", "protocol": "Parathyroid hormone (rat PTH 1-34) was purchased from Sigma. UMR 106-01 cells were cultured in Eagle's minimal essential medium (EMEM) supplemented with 25 mM Hepes pH 7.4, 1% nonessential amino acids, 100 units/ml penicillin, 100 μg/ml streptomycin. 5% fetal bovine serum. Real Time Quantitative RT-PCR was conducted according to the following method: UMR 106-01 cells were seeded in 12-well plates and cultured for 2-3 days in cell culture media. When cells were confluent, cell culture media was exchanged with 1% fetal bovine serum for overnight for cell starvation. Cells were pre-incubated with dentifrice for 15 min and then incubated with PTH (10^−8 M) for 4 hours.\nTotal RNA was isolated from UMR 106-01 cells stimulated with or without PTH with TRIzol reagent. Total RNA (0.1 μg) was reverse-transcribed to cDNA using the Invitrogen SUPERSCRIPT kit according to the manufacturer's instructions. All cDNAs were amplified by adding 2.5 μl of cDNA to the PCR mixture (22.5 μl) containing each primer (0.2 μM) and 12.5 μl of the Platinum SYBR Green qPCR SuperMix UDG (Invitrogen). The reactions were preincubated at 50° C. for 2 minutes to decontaminate dU-containing DNA by UDG, then at 95° C. for 2 minutes to inactivate UDG and activate Taq. The PCR program continued 49 cycles of denaturation at 95° C. for 15 seconds, annealing and elongation of the primers at 60° C. for 30 seconds. Relative quantification of gene expression was determined by using the 2-delta delta CT method where fold changes in gene expression are relative to control samples. All samples were normalized to β-actin.\nAll results were expressed as means±standard error (S.E.) of triplicate measurements with all experiments being repeated at least three times. Statistical analyses were carried out using the Student's t test."}, "[3]": {"system": "MMP-9 production of U937 cells", "assay": "MMP-9 ELISA of conditioned media from TNFα-stimulated U937 monocyte cells", "type": "cell-based, Human", "conditions": "for MMP-9 production, Average: U937 cells, 24 hours, ELISA of conditioned media", "protocol": "U937 cells and RPMI 1640 culture medium were obtained from ATCC. Human MMP-9 ELISA Kit (QUANTIKINE) was obtained from R&D Systems. Fetal Bovine Serum (FBS) was obtained from VWR, and the penicillin-streptomycin solution and Tumor Necrosis Factor α (TNFα) were obtained from Sigma.\nHuman leukemia U937 monocyte lymphoma cells were cultured in RPMI 1640 medium supplemented with 10% FBS and 1% Penicillin-Streptomycin solution. Cells were incubated at 37° C. in a humidified atmosphere containing 5% CO2 and 95% air. Before treatment, cells were transferred into RPMI containing 1% FBS for overnight. Cells were plated on a 48 well plate. Cell culture medium included either TNFα (250 ng/mL), Triclosan (1 ppm), or both agents together or no agent (control). Cells were incubated after treatment for 24 hours. Conditioned media were collected and store at −80° C. until analysis. Samples of conditioned media were subjected to enzyme-linked immunosorbent assays (ELISA) for MMP-9, according to commercial ELISA protocol (FIG. 1)."}}}
{"compound": "Oc1cc(Cl)ccc1Oc1ccc(Cl)cc1Cl", "note": "[Triclosan, 2,4,4′-trichloro-2′-hydroxydiphenyl ether]", "values": [{"measurement": "factor by which antibacterial activity of triclosan is reduced", "setting": "[1]", "result": "10-20"}, {"measurement": "MMP-13 expression in PTH stimulated UMR cells", "setting": "[2]; 1 ppm", "result": "significantly reduced"}, {"measurement": "MMP-13 expression in PTH stimulated UMR cells", "setting": "[2]; 4 ppm", "result": "significantly reduced"}, {"measurement": "MMP-13 expression in PTH stimulated UMR cells", "setting": "[2]; 10 ppm", "result": "significantly reduced"}, {"measurement": "MMP-9 level in TNFα stimulated U937 cells", "setting": "[3]; Triclosan at 1 ppm", "result": "significantly reduced"}, {"measurement": "MMP-9 production, Average", "setting": "[3]; TNFα 250 ng/mL + Triclosan 1 ppm", "result": 0.155, "unit": "ng/mL"}]}
{"compound": "PTH: Parathyroid hormone (rat PTH 1-34) purchased from Sigma, used to stimulate MMP-13 expression (AVSEIQLMHNLGKHLASVERMQWLRKKLQDVHNF; Parathyroid hormone; UniProt P04089 32-65, looked up, fragment)", "values": [{"measurement": "MMP-13 expression in UMR cells", "setting": "[2]; stimulated with PTH 10^-8 M", "result": "increase"}]}
{"compound": "TNFα", "values": [{"measurement": "MMP-9 production, Average", "setting": "[3]; TNFα 250 ng/mL alone", "result": 0.275, "unit": "ng/mL"}, {"measurement": "MMP-9 level in U937 cells", "setting": "[3]; stimulated with TNFα", "result": "increase"}]}
